The results in this text go back to patent US20120245137A1 (Zalicus Pharmaceuticals Ltd., priority 2009, published 2012).

Common to all, as to type: cell-based
Assay [1] addresses human α1G T-type channels (Homo sapiens, UniProt O43497). Put plainly: T-type calcium channel block, whole cell patch clamp, α1G. The conditions noted are these: HEK cells stably expressing human α1G; mainly non-inactivated protocol; values above 10,000 nM represented as 10000. Summed up:
(§1)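 Using standard patch-clamp, T-type currents were recorded from stably transfected human α1G or α1H HEK 293 cells. Separate non-inactivating and inactivation voltage protocols distinguished resting from voltage-dependent block by locally applied compound in 0.1-0.01% DMSO.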
(In general: In patch-clamp work, channel activity is measured electrically.)

The target of assay [2] is human α1H T-type channels (Homo sapiens, UniProt O95180). The assay can be described thus: T-type calcium channel block, whole cell patch clamp, α1H. The conditions noted are these: HEK cells stably expressing human α1H; mainly non-inactivated protocol; values above 10,000 nM represented as 10000. Put shortly:
as §1

In assay [3] the target is N-type calcium channel subunits (α1B, α2δ, and β3a) (Homo sapiens, UniProt Q00975). Put plainly: Block of Cav2.2 channel, whole cell voltage clamp, manual and PatchXpress. The conditions noted are these: Table 5; table follows Assay Example 3 (whole cell voltage clamp / PatchXpress); assay not given. Put shortly: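 Percent block taken as current amplitude ratio with versus without compound, applied in rising doses; IC50 fitted where one cell received multiple doses. Protocol: 50 ms pulses to +20 mV at 0.067 Hz from […] or −90 mV holding; P/n leak subtraction, no junction-potential correction; manual and PatchXpress recordings.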

Some results are limits rather than exact numbers.

Usually IC50 stands for the concentration at which inhibition is half-maximal.

N-type calcium channel subunits (α1B, α2δ, and β3a), sequence (Q00975 whole entry): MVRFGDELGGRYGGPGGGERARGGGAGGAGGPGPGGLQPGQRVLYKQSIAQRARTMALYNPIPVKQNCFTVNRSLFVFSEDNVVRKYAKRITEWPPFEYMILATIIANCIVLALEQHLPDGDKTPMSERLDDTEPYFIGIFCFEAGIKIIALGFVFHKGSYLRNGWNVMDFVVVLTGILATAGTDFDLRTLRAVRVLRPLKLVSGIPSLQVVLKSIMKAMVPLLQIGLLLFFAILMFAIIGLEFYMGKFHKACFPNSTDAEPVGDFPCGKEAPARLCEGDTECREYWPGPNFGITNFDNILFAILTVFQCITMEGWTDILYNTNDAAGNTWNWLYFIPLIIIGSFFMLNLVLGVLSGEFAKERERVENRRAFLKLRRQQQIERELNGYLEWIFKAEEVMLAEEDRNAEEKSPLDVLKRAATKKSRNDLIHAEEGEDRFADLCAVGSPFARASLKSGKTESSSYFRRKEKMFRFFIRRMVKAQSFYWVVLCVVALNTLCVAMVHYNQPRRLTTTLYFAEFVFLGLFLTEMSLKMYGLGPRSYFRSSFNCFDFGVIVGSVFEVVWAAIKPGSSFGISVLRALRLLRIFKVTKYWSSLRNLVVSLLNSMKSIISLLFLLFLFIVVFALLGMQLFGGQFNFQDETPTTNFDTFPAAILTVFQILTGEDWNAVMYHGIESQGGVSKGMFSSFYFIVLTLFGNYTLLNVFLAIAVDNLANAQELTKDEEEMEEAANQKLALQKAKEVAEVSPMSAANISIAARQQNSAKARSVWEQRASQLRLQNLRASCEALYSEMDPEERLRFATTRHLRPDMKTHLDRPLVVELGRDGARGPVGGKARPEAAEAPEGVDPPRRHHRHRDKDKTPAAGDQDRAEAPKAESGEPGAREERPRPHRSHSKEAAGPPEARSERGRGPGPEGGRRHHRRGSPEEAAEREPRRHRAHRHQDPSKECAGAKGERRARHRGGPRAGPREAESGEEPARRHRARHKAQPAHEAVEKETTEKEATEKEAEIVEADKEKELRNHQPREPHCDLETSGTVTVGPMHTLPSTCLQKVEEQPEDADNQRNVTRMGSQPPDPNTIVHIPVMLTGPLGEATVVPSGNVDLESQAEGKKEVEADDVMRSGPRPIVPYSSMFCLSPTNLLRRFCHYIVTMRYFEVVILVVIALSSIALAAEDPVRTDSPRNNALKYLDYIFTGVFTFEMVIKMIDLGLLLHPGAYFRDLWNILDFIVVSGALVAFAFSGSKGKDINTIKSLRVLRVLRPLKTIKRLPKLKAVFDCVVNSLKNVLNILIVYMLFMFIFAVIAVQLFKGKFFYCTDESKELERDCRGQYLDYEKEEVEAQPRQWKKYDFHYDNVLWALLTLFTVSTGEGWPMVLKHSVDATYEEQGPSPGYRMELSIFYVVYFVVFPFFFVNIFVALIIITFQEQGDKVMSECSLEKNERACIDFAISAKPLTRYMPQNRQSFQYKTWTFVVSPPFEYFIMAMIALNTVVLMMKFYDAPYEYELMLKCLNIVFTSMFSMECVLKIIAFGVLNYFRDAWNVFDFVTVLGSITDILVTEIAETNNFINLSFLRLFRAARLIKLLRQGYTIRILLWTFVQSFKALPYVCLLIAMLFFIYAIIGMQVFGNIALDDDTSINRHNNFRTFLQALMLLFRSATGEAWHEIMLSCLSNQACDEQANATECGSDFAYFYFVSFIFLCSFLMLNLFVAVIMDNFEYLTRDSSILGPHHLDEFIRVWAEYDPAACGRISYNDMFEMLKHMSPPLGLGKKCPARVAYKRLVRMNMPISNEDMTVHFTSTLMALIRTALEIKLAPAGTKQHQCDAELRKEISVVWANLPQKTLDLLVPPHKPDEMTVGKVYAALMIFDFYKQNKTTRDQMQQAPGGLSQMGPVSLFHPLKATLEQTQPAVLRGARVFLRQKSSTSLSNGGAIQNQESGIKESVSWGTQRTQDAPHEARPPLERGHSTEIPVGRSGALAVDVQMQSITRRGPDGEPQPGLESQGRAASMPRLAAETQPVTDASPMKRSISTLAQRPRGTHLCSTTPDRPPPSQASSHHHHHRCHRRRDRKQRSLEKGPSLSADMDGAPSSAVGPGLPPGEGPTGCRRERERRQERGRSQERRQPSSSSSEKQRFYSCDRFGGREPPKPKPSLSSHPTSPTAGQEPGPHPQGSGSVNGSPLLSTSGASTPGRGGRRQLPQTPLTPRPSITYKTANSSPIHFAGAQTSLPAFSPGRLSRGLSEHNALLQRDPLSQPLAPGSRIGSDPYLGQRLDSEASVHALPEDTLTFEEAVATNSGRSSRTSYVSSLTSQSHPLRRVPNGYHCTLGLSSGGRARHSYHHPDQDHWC
N-type calcium channel subunits (α1B, α2δ, and β3a), sequence (P54289 25-1103 partner): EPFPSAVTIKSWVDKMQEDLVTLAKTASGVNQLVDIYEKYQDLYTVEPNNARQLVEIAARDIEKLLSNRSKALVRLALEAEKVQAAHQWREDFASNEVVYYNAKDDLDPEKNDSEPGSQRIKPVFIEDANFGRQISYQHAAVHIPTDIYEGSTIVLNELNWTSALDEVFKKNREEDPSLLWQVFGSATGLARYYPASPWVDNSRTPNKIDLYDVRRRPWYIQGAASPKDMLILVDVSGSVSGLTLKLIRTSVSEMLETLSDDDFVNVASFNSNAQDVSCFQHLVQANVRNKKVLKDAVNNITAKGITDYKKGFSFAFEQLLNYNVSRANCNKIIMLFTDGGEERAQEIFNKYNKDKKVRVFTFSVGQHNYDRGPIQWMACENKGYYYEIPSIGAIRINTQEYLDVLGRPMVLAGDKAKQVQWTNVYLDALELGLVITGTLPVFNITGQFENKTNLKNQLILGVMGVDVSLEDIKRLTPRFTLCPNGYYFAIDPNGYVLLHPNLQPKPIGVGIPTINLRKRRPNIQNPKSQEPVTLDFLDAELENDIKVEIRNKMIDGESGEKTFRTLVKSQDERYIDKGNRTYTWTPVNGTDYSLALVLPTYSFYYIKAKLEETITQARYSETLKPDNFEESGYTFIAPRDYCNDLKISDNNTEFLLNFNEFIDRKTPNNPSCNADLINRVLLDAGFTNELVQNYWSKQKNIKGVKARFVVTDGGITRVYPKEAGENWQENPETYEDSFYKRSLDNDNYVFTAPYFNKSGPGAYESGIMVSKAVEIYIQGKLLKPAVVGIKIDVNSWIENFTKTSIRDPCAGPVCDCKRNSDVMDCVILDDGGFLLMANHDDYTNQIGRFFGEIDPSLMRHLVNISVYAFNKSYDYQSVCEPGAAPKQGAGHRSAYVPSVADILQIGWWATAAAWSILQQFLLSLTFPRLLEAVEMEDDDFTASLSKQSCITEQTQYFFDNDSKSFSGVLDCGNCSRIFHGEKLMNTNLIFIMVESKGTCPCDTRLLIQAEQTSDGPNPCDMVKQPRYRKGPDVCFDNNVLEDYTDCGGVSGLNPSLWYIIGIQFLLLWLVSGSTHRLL
N-type calcium channel subunits (α1B, α2δ, and β3a), sequence (P54284 whole entry partner): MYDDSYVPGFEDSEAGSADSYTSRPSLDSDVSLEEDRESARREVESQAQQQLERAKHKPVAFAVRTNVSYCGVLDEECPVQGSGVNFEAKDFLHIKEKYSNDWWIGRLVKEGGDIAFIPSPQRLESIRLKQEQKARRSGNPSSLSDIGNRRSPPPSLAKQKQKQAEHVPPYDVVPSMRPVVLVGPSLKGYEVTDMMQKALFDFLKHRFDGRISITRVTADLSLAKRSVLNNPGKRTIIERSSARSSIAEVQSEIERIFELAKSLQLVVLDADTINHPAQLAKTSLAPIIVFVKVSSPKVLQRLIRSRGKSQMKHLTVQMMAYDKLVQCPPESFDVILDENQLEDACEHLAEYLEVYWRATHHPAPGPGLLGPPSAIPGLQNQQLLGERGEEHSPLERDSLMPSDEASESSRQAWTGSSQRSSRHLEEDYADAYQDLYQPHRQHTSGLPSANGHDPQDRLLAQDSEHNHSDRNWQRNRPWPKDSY

As to `O=C(NC[C@H]1C[C@@H](S(=O)(=O)c2cccc(C(F)(F)F)c2)C1)c1ccnn1CC(F)(F)F` [Compound 387, 1-(2,2,2-trifluoroethyl)-N-(((1S,3S)-3-(3-(trifluoromethyl)phenylsulfonyl)cyclobutyl)methyl)-1H-pyrazole-5-carboxamide], the results for the IC50 in assay [1], in assay [2] and in assay [3] were 0.72 µM, 0.71 µM and 4220 nM, respectively.

Turning to `CC(C)NC(=O)CN[C@H]1CC[C@@H](S(=O)(=O)c2cccc(C(F)(F)F)c2)CC1` [Compound 52, N-isopropyl-2-((1S,4S)-4-(3-(trifluoromethyl)phenylsulfonyl)cyclohexylamino)acetamide], the values for the IC50 in assay [1], in assay [2] and in assay [3] were 0.86 µM, 0.79 µM and 1540 nM, respectively.

As to `O=C(NC[C@H]1C[C@H](S(=O)(=O)c2cccc(C(F)(F)F)c2)C1)c1ccnn1CC(F)(F)F` [Compound 367, 1-(2,2,2-trifluoroethyl)-N-(((1R,3R)-3-(3-(trifluoromethyl)phenylsulfonyl)cyclobutyl)methyl)-1H-pyrazole-5-carboxamide], the IC50 in assay [1] amounted to 0.9 µM; in assay [2], 0.35 µM; in assay [3], 850 nM.

`O=C(N[C@H]1CC[C@@](F)(S(=O)(=O)c2cccc(C(F)(F)F)c2)CC1)[C@@H]1C[C@H](c2ccccc2)CN1` [Compound 286, (2S,4R)-N-((1S,4R)-4-fluoro-4-(3-(trifluoromethyl)phenylsulfonyl)cyclohexyl)-4-phenylpyrrolidine-2-carboxamide]: the IC50 came out at 3.19 µM in assay [1], 1.54 µM in assay [2] and 390 nM in assay [3].

Consider `O=C(N[C@H]1C[C@H](CS(=O)(=O)c2cccc(C(F)(F)F)c2)C1)c1ccc(C(F)(F)F)nc1` [Compound 346, 6-(trifluoromethyl)-N-((1R,3R)-3-((3-(trifluoromethyl)phenylsulfonyl)methyl)cyclobutyl)nicotinamide], for which the IC50 in assay [1] stood at 1.26 µM; in assay [2], 0.41 µM; in assay [3] it was 5540 nM.

Turning to `O=C(N[C@H]1C[C@H](CS(=O)(=O)c2cccc(C(F)(F)F)c2)C1)c1ccc(F)c(Cl)c1` [Compound 348, 3-chloro-4-fluoro-N-((1R,3R)-3-((3-(trifluoromethyl)phenylsulfonyl)methyl)cyclobutyl)benzamide], the concentration for half-maximal inhibition (IC50) came to 4.52 µM in assay [1], 0.54 µM in assay [2] and 1030 nM in assay [3].

In the case of `CC(C)S(=O)(=O)c1cc(C(F)(F)F)cnc1C(=O)N[C@H]1C[C@H](S(=O)(=O)c2cccc(C(F)(F)F)c2)C1` [Compound 432, 3-(isopropylsulfonyl)-5-(trifluoromethyl)-N-((1R,3R)-3-(3-(trifluoromethyl)phenylsulfonyl)cyclobutyl) picolinamide], the IC50 in assay [1] was 1.29 µM; in assay [2], 0.33 µM; in assay [3], 810 nM.

In the case of `O=C(N[C@H]1CC[C@H](S(=O)(=O)c2cccc(C(F)(F)F)c2)CC1)C1(C(F)(F)F)CCC1` [Compound 66, 1-(trifluoromethyl)-N-((1R,4R)-4-(3-(trifluoromethyl)phenylsulfonyl)cyclohexyl)cyclobutanecarboxamide], the 50% inhibitory concentration (IC50) in assay [1] is over 10 µM; in assay [2], over 10 µM; in assay [3], 8990 nM.

Turning to `O=C(N[C@H]1CC[C@@H](S(=O)(=O)c2cc(F)cc(C(F)(F)F)c2)CC1)c1ccc(F)c(Cl)c1` [Compound 320, 3-chloro-4-fluoro-N-((1S,4S)-4-(3-fluoro-5-(trifluoromethyl)phenylsulfonyl)cyclohexyl) benzamide], the results for the half-inhibitory concentration (IC50) in assay [1], in assay [2] and in assay [3] were 0.29 µM, 0.19 µM and 600 nM, respectively.

Turning to `O=C(NC[C@H]1CC[C@@H](S(=O)(=O)c2cccc(C(F)(F)F)c2)CC1)c1cc(F)cc(Cl)c1` [Compound 29, 3-chloro-5-fluoro-N-(((1S,4S)-4-(3-(trifluoromethyl)phenylsulfonyl)cyclohexyl)methyl)benzamide], the IC50 turned out to be 0.26 µM in assay [1], 0.43 µM in assay [2] and 610 nM in assay [3].

Consider “3-chloro-4-fluoro-N-((1R,4R)4-(3- (trifluoromethyl)phenylsulfonyl) cyclohexyl)benzamide [Compound 124]”, for which the half-inhibitory concentration (IC50) in assay [1] worked out at 0.35 µM; in assay [2], 0.54 µM; in assay [3], 510 nM.

Consider `O=C(CNC[C@H]1CC[C@@H](S(=O)(=O)c2cccc(C(F)(F)F)c2)CC1)NC1CCCCC1` [Compound 36, N-cyclohexyl-2-(((1S,4S)-4-(3-(trifluoromethyl)phenylsulfonyl)cyclohexyl)methylamino)acetamide], for which the IC50 was 5.25 µM in assay [1], 5.11 µM in assay [2] and 740 nM in assay [3].

With `O=C(N[C@H]1C[C@H](S(=O)(=O)c2cccc(C(F)(F)F)c2)C1)c1ccc(Cl)c(F)c1` [Compound 429, 4-chloro-3-fluoro-N-((1S,3S)-3-(3-(trifluoromethyl)phenylsulfonyl)cyclobutyl)benzamide], the half-inhibitory concentration (IC50) in assay [1] is over 10 µM; in assay [2], 8.37 µM; in assay [3] it was 770 nM.

For `CC1(S(=O)(=O)c2cccc(C(F)(F)F)c2)CCC(NC(=O)c2cnc(C(F)(F)F)nc2)CC1` (stereo not drawn) [Compound 2, N-(4-methyl-4-(3-(trifluoromethyl)phenylsulfonyl)cyclohexyl)-2-(trifluoromethyl) pyrimidine-5-carboxamide], the IC50 worked out at 1.38 µM in assay [1], 1.17 µM in assay [2] and 950 nM in assay [3].

As for `O=S(=O)(NC[C@H]1C[C@H](S(=O)(=O)c2cccc(C(F)(F)F)c2)C1)c1ccc(C(F)(F)F)cc1` [Compound 424, 4-(trifluoromethyl)-N-(((1R,3R)-3-(3-(trifluoromethyl)phenylsulfonyl)cyclobutyl)methyl)benzenesulfonamide], the IC50 in assay [1] was determined as 2.29 µM; in assay [2] it was 1.04 µM; in assay [3] it was 1460 nM.

Take “4-fluoro-3-(trifluoromethyl)-N- ((1S,4S)-4-((3- (trifluoromethyl)phenylsulfonyl) methyl)cyclohexyl)benzamide [Compound 138]”: the figures for the half-inhibitory concentration (IC50) in assay [1], in assay [2] and in assay [3] were 9.88 µM, 2.84 µM and 420 nM, respectively.

As for `CN(C(=O)CN[C@H]1CC[C@@](F)(S(=O)(=O)c2cccc(C(F)(F)F)c2)CC1)C(C)(C)C` [Compound 88, N-tert-butyl-2-((1S,4S)-4-fluoro-4-(3-(trifluoromethyl)phenylsulfonyl)cyclohexylamino)-N-methylacetamide], the half-inhibitory concentration (IC50) in assay [1] is over 10 µM; in assay [2], 3.03 µM; in assay [3], 70 nM.

For the compound `O=C(N[C@H]1CC[C@@H](S(=O)(=O)c2cccc(C(F)(F)F)c2)CC1)c1ccnn1CC(F)(F)F` [Compound 193, l-(2,2,2-trifluoroethyl)-N-((1S,4S)-4-(3-(trifluoromethyl)phenylsulfonyl)cyclohexyl)-1H-pyrazole-5-carboxamide], the IC50 in assay [1] came out at 6.97 µM; in assay [2], 1.59 µM; in assay [3], 540 nM.

`CN(C(=O)CN[C@H]1CC[C@@H](CS(=O)(=O)c2cccc(C(F)(F)F)c2)CC1)C(C)(C)C` [Compound 145, N-tert-butyl-N-methyl-2-((1S,4S)-4-((3-(trifluoromethyl)phenylsulfonyl)methyl)cyclohexylamino)acetamide]: the IC50 in assay [1] turned out to be 5.83 µM; in assay [2] it was 1.34 µM; in assay [3], 1190 nM.
